Results: patent publication US20240245677A1, “SELECTED COMPOUNDS FOR TARGETED DEGRADATION OF BRD9” (C4 THERAPEUTICS, INC., priority 2021, published 2024)

Key:
SALL4 = biological target: T1, SALL4 (Homo sapiens, UniProt Q96SW2+Q9UJQ4); assay: SALL4 HiBiT degradation assay in KELLY.2 cells; type: cell-based
T1 construct: CRISPR-edited to endogenously express HiBiT tagged SALL4; host or cells: KELLY.2
Description: Nano-Glo® HiBiT Lytic Assay System was purchased from Promega (Catalog No. N3050, Madison, WI, USA). […] The HiBiT polypeptide tag was introduced into the C-terminus of the endogenous SALL4 locus by CRISPR-Cas9 to produce the modified KELLY.2 cell line. The HiBiT polypeptide allows reconstitution of NanoBiT enzyme following cell lysis and addition of the complementing LgBiT polypeptide that activates substrate to produce a luminescent signal that is directly proportional to the amount of HiBiT-tagged SALL4.
KELLY.2 cells were routinely sub-cultured to maintain cell density between 30-80% confluence, not to exceed 10 passages. Cells were washed with PBS, trypsinized for 5 minutes at 37° C., and resuspended in fresh growth media without phenol red. […] Cell concentration was adjusted with growth media without phenol red to 2×10^5 cells/mL.
30 nL DMSO was transferred to all control wells.
30 μL of media was dispensed to column 24 as background positive control (P). Plates were spun briefly at 1000 rpm and cells were incubated at 37° C., 5% CO2 for 6 hours. Final concentration of DMSO was 0.1% for all samples.
Cellular SALL4 protein level was determined based on quantification of HiBiT using Nano-Glo® HiBiT Lytic Assay System (Promega). […] Cells treated in the absence of the test compound (0.1% DMSO vehicle) were the negative control (N) and wells containing only media were the positive control (P).
Percent response of compound-treated samples (T) were calculated by normalizing to the DMSO treated negative (N) controls on the same microtiter plate after background (i.e., positive control) signal subtraction:
Curve fit and DC50 (concentration that degrades 50% SALL4) determination was performed by 4 parametric logistic fit analysis using software such as GraphPad Prism software (GraphPad Software, LLC, San Diego, CA, USA). The fit was performed through minimization of the root mean squared error between observed and calculated values of the four-parameter logistic equation using the simplex optimizer of the Apache Commons Math library. […] DC50 values were computed as the concentrations where the fitted curves cross the 50% response level. Averages and standard deviations were computed from replicates of the experiment.

in vitro = conditions: plasma; for % Bound / % Remaining at 3 hours: 3 h, 2 µM
Protocol: Plasma protein binding (PPB) of Compound 1 was evaluated in plasma from mice, rats, dogs, cynomolgus monkeys, and humans using ultracentrifugation.
Frozen plasma from CD-1 mice, Sprague-Dawley rats, beagle dogs, cynomolgus monkeys, and humans was purchased and stored at ≤−30° C. On the day of study, plasma samples of CD-1 mice, Sprague-Dawley rats, beagle dogs, cynomolgus monkeys and humans were thawed under running cold tap water and centrifuged to remove any particulates.
For the internal standard, telmisartan, a 1 mg/mL solution was prepared by dissolving 1.4 mg of telmisartan in 1.4 mL of DMSO, and stored at 4° C.
The 10 mM stock solution of each test compound was used to prepare 400 μM intermediate stocks in methanol. Then, a 2 μM working stock of each test compound was prepared for plasma from each species (mouse, rat, dog, monkey, and human) by spiking 12 μL of the 400 μM intermediate stock for each test compound into 2400 μL of thawed and prepared plasma from a test species.
400 μL of blank plasma for each species was transferred to a 0.5 mL Beckman tube (Part No. 343776, Beckman Coulter Life Sciences, Indianapolis, IN, USA) and centrifuged for 3 hours at 627000×g at 37° C. The supernatant was removed and kept at room temperature.
To prepare for ultracentrifugation, the rotor of the centrifuge was placed into an incubator and warmed up to 37° C. before centrifugation. The vacuum switch of the OPTIMA™ MAX-TL Ultracentrifuge (Beckman Coulter Life Sciences, Indianapolis, IN, USA) was turned on and the vacuum was reduced to less than 10 microns to warm up the system. The ultracentrifuge's parameters were set to the following: Temperature—37° C.; Time—3 hours; and Speed—627000×g. For each species and each test compound, 2.4 mL of working stock was mixed and pre-incubated for 45 minutes at 37° C. Then, 60 μL was separated and precipitated with 200 μL of acetonitrile containing internal standard and labeled as (TO), and 0.4 mL (triplicates) were transferred to Beckman 2 mL tubes (Part No. 344625, Beckman Coulter Life Sciences, Indiana, IN, USA).
For each species and each test compound, the triplicate 0.4 mL sample tubes were centrifuged for 3 hours at 627000×g at 37° C. […] At 45 minutes, 60 μL was separated, precipitated with 200 μL of acetonitrile containing internal standard and labelled as (T45). After completion of 3 hours, 60 μL of incubated samples were separated, precipitated with acetonitrile containing internal standard, and labeled as (T3).
After completing the 3 hours of centrifugation, 30 μl of the top fraction of supernatant from each sample tube was removed (free fraction) and precipitated with acetonitrile containing internal standard (labeled as top sample).
After removing 30 μL of the top fraction, remaining top and bottom layer were mixed thoroughly to make a uniform mixture. From this mixture, 30 μL of bottom sample was collected and precipitated with acetonitrile containing internal standard (labelled as bottom sample).
Matrix matching was done for crashed stability samples (TO, T45 and T3 samples) by adding 30 μL of a 50:50 mixture of blank plasma supernatant and phosphate-buffered saline (PBS), and for top and bottom samples, by adding 30 μL of blank plasma (kept at room temperature).
All the stability samples and centrifuged samples were vortexed at 1000 rpm for 5 minutes and centrifuged at 4000 rpm for 10 minutes. Supernatant from each sample was separated, diluted 2-fold with water, and analyzed in LC-MS/MS.
Samples (supernatant-free fraction and total plasma) were analyzed by LCMS-MS (no standards).

T1 sequence (Q9UJQ4 whole entry): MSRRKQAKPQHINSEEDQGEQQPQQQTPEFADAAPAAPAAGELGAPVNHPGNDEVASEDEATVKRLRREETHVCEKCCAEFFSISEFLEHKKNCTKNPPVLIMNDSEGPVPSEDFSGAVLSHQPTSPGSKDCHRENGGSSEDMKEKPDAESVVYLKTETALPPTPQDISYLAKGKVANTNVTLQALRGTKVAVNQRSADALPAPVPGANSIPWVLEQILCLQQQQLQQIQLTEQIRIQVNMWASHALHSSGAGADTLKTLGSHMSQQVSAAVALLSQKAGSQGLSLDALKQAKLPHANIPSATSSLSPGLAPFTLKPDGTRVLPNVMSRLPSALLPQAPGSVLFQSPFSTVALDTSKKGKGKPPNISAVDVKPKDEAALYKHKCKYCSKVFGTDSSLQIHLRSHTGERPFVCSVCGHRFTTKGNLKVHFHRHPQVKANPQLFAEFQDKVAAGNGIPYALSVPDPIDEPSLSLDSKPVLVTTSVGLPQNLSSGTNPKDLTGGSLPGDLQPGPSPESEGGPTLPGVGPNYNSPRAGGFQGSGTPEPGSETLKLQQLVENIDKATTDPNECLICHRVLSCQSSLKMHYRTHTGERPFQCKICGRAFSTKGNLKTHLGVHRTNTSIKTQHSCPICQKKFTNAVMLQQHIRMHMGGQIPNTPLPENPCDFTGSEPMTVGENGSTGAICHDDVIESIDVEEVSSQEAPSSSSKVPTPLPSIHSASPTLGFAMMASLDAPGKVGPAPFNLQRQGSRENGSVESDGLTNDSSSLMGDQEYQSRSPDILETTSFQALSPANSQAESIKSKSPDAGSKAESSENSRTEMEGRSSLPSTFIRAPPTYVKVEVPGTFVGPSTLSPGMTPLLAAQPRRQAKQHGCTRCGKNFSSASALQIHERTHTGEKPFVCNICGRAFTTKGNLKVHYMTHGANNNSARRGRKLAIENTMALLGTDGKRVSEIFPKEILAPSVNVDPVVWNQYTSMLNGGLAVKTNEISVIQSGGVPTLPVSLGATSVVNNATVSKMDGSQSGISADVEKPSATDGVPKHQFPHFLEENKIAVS
T1 sequence (Q96SW2 whole entry): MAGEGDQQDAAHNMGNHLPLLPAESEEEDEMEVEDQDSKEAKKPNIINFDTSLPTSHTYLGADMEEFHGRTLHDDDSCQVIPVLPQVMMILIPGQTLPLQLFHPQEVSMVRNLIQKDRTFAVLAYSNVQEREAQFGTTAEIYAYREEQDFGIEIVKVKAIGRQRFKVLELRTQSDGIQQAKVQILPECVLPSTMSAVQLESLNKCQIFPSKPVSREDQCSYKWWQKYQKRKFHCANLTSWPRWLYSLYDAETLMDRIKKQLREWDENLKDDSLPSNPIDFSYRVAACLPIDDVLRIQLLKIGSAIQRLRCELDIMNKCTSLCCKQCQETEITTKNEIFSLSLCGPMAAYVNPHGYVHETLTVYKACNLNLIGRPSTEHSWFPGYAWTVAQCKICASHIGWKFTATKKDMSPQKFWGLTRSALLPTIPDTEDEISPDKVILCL
T1 sequence (Q16531 2-1140 partner limits assumed): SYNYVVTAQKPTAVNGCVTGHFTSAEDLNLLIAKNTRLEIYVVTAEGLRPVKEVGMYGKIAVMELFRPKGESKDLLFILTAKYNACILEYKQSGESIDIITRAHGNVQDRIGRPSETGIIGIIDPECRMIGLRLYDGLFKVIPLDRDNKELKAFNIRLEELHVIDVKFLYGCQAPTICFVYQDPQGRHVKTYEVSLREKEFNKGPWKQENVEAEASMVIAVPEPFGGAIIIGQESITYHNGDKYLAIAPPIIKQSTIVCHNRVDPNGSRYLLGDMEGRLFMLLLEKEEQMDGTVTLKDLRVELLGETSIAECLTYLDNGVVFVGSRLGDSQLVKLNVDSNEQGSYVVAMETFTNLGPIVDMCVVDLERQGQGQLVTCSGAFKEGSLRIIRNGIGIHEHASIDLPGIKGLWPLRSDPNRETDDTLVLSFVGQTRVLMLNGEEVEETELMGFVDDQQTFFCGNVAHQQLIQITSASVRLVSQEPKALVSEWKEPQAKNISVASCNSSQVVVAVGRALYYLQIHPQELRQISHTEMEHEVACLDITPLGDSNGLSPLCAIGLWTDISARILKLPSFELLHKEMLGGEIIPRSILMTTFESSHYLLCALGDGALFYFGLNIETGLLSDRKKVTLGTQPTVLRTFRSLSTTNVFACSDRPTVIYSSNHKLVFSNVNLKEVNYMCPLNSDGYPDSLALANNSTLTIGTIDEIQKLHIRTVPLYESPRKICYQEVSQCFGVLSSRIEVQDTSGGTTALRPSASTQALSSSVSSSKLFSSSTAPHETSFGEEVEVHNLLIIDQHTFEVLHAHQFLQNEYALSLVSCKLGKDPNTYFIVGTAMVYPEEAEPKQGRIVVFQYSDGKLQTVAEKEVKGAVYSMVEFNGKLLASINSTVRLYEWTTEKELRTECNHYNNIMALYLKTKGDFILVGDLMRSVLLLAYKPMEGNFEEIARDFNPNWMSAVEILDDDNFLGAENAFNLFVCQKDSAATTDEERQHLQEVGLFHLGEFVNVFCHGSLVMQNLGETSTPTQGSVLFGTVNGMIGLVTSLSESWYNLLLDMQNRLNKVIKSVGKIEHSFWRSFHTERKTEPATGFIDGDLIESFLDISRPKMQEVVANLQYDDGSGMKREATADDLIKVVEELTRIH

COc1cc(-c2cn(C)c(=O)c(C)c2C)cc(OC)c1CN1CC[C@H](N2CCN(c3ccc(N[C@H]4CCC(=O)NC4=O)cc3F)CC2)C(F)(F)C1 [Compound 1, (S)-3-((4-(4-((S)-1-(2,6-dimethoxy-4-(1,4,5-trimethyl-6-oxo-1,6-dihydropyridin-3-yl)benzyl)-3,3-difluoropiperidin-4-yl)piperazin-1-yl)-3-fluorophenyl)amino)-piperidine-2,6-dione]
% SALL4 Remaining Relative to Vehicle Control at 6 hr, Mean (SALL4; 0.101 nM): 103.8% | % SALL4 Remaining Relative to Vehicle Control at 6 hr, Mean (SALL4; 0.318 nM): 104.1% | % SALL4 Remaining Relative to Vehicle Control at 6 hr, Mean (SALL4; 1.01 nM): 104.1% | % SALL4 Remaining Relative to Vehicle Control at 6 hr, Mean (SALL4; 3.17 nM): 103.7% | % SALL4 Remaining Relative to Vehicle Control at 6 hr, Mean (SALL4; 10.0 nM): 106.5% | % SALL4 Remaining Relative to Vehicle Control at 6 hr, Mean (SALL4; 31.7 nM): 106.1% | % SALL4 Remaining Relative to Vehicle Control at 6 hr, Mean (SALL4; 100 nM): 104.2% | % SALL4 Remaining Relative to Vehicle Control at 6 hr, Mean (SALL4; 317 nM): 105.0% | % SALL4 Remaining Relative to Vehicle Control at 6 hr, Mean (SALL4; 1000 nM): 104.0% | % SALL4 Remaining Relative to Vehicle Control at 6 hr, Mean (SALL4; 3161 nM): 104.4% | % SALL4 Remaining Relative to Vehicle Control at 6 hr, Mean (SALL4; 9990 nM): 96.6% | Emax (SALL4; SALL4-HiBiT, KELLY.2 cells, 6 hours, read-out: Mean Emax (%) ± SD): 98.9 ± 2.1% | effect on degradation of SALL4 (SALL4; concentrations up to 10 μM, 6 hours): no significant effect | fraction unbound at 3 h, 2 µM (in vitro; CD-1, mouse): 0.0339 | % Bound (in vitro; CD-1, mouse): 96.61% | % Remaining at 3 hours (in vitro; CD-1, mouse): 84.69% | fraction unbound at 3 h, 2 µM (in vitro; Sprague-Dawley, rat): 0.0971 | % Bound (in vitro; Sprague-Dawley, rat): 90.29% | % Remaining at 3 hours (in vitro; Sprague-Dawley, rat): 88.73% | fraction unbound at 3 h, 2 µM (in vitro; beagle, dog): 0.0646 | % Bound (in vitro; beagle, dog): 93.54% | % Remaining at 3 hours (in vitro; beagle, dog): 99.38% | fraction unbound at 3 h, 2 µM (in vitro; human): 0.067 | % Remaining at 3 hours (in vitro; human): 66.87% | fraction unbound at 3 h, 2 µM (in vitro; monkey): 0.0514 | % Bound (in vitro; monkey): 94.86% | % Remaining at 3 hours (in vitro; monkey): 99.14%
